Experiment [1] relates to PAR. Description: nitrocellulose saturation binding experiments. From the text:
(§1) Applicants thereafter repeated the experiments using both wild type and mutant AIFm peptides spanning only amino acids 567-592 instead of full length AIFm and obtained results consistent with those using full-length AIF. […] The double amino acid mutant Dm (corresponding to only amino acids 567-592 of AIF-Dm so as to consist of SEQ. ID NO. 16) bound PAR. […] Thus, it is preferred in embodiments of the invention when conducting genetic manipulations to convert at least three target basic amino acids in the PBM to hydrophobic amino acids.
The PAR polymer binding properties of the mutant Pbm-AIF was then measured using full-length recombinant His-WT-AIF and His tagged Pbm-AIF (“His-Pbm-AIF”) via a series of nitrocellulose saturation binding experiments. Similar experiments were also conducted for the shorter peptides Dm and Tm in comparison to WT. FIG. 10B through FIG. 10D comprise charts reporting data from these various experiments. With regard to the shorter peptides, Applicants determined that the binding affinity constant (“Kd”) and maximum binding capacity (“Bmax”) of these AIF mimetic peptides and the results are reported in the chart of FIG. 10B. […] FIG. 10D comprises a Scatchard plot (95% confidence interval) of the results.

Experiment [2] deals with PAR. The experiment in a line: dot-blot assay of AIF peptides with 32P-labeled PAR. The experiment is classed as binding. Particulars: for binding to 32P-labeled automodified PARP-1 or 32P-labeled purified PAR: peptides spanning only amino acids 567-592; for binding to PAR: peptides, 100 nM purified 32P-labeled PAR. How it is done: To determine whether these putative binding sites are in fact responsible for AIF binding to PAR, Applicants performed a dot-blot assay with peptides corresponding to these motifs in the presence of 100 nM purified ^32P-labeled PAR. FIG. 5 comprises black and white photos of representative dot-blot assay for full length WT-AIF, three AIF peptides formed from identified portions of AIFm, histone H3, and BSA in presence of 100 nM purified ^32P-labeled PAR.
as §1

The subject of the next experiment is DNA. Description: DNA retardation assay. Particulars: DNA (200 ng), 30 minutes. The experiment is classed as binding. The procedure: AIF binding-mediated DNA mobility retardation was performed as described by H. Cande et al. (Nat Struct Biol, 2002). Recombinant His-tagged AIF (10 μg or 25 μg) was incubated with 1 kb DNA molecular weight marker (obtained from Fermentas) for 30 minutes at room temperature and loaded on 2.5% agarose gel prestained with ethidium bromide (1 μg/ml). Mobility shift was visualized under the Alpha Innotech UV illuminator.
Further, a DNA retardation assay of His-WT-AIF and His-Pbm-AIF was conducted by incubating both with DNA (200 ng) for 30 minutes, using BSA as a negative control.

Setting [3] is: PAR binding, saturation binding.
The mark [4] stands for this setting: PAR binding, saturation binding, ligand binding program of Sigma plot, read-out: Kd.

The values that follow come from patent US20120122765A1, “COMPOUNDS AND RELATED METHODS FOR MANIPULATING PARP-1-DEPENDENT CELL DEATH” (priority 2010, published 2012).

Like-named read-outs stand apart in the source and are kept apart here.

The term Kd denotes the concentration at which binding is half-saturated.

Consider “amino acids 567-592 of AIF-Dm, SEQ. ID NO. 16 LRDKVVVGIVLWNVFNRMPIAAAIIK (mouse) [Dm peptide]”, for which the Bmax in the experiment with PAR [1] (setting [3]) is 3.97 pmol. Also, the Kd on PAR [1] (setting [4]) worked out at 3300 nM. Further, the “binding to 32P-labeled automodified PARP-1 or 32P-labeled purified PAR” value in the experiment with PAR [2] is recorded as “bound PAR”.
“amino acids 567-592 of AIF-Tm, SEQ. ID NO. 17 LRDKVVVGIVLWNVFNRMPIAAAIIA (mouse) [Tm peptide]”: in the experiment on PAR [1] (setting [3]), the Bmax was 1.77 pmol. For the same molecule, the dissociation constant Kd on PAR [1] (setting [4]) stood at 107000 nM. Moreover, the “PAR binding in saturation binding experiments” value with PAR [1] (result in words) is given as “clearly reduced PAR binding”. For the same molecule, the “binding to 32P-labeled automodified PARP-1 or 32P-labeled purified PAR” value with PAR [2] is recorded as “failed to bind”.
Turning to “peptide composed of AIFm amino acids 222-244: peptide of mouse AIF amino acids 222-244, SEQ. ID NO. 1 (GGVAVLTGKKVVHLDVRGNMVKL; mouse)”, the “binding to PAR” value with PAR [2] is reported as “bound less well”.
With “peptide composed of AIFm amino acids 441-463: peptide of mouse AIF amino acids 441-463, SEQ. ID NO. 5 (FYDIKLGRRRVEHHDHAVVSGRL; mouse)”, the “binding to PAR” value with PAR [2] is reported as “failed to bind PAR appreciably”.

B1: His-WT-AIF: full-length recombinant His-tagged wild type mouse AIF (protein)
chain: MFRCGGLAGAFKQKLVPLVRTVYVQRPKQRNRLPGNLFQQWRVPLELQMARQMASSGSSGGKMDNSVLVLIVGLSTIGAGAYAYKTIKEDQKRYNERVMGLGLSPEEKQRRAIASATEGGSVPQIRAPSHVPFLLIGGGTAAFAAARSIRARDPGARVLIVSEDPELPYMRPPLSKELWFSDDPNVTKTLQFRQWNGKERSIYFQPPSFYVSAQDLPNIENGGVAVLTGKKVVHLDVRGNMVKLNDGSQITFEKCLIATGGTPRSLSAIDRAGAEVKSRTTLFRKIGDFRALEKISREVKSITVIGGGFLGSELACALGRKSQASGIEVIQLFPEKGNMGKILPQYLSNWTMEKVKREGVKVMPNAIVQSVGVSGGRLLIKLKDGRKVETDHIVTAVGLEPNVELAKTGGLEIDSDFGGFRVNAELQARSNIWVAGDAACFYDIKLGRRRVEHHDHAVVSGRLAGENMTGAAKPYWHQSMFWSDLGPDVGYEAIGLVDSSLPTVGVFAKATAQDNPKSATEQSGTGIRSESETESEASEITIPPSAPAVPQVPVEGEDYGKGVIFYLRDKVVVGIVLWNVFNRMPIARKIIKDGEQHEDLNEVAKLFNIHED
modifications: left off: small tags and cut ends
Take B1: the DNA-binding properties entry with DNA is reported as “comparable”. Besides, the Bmax was determined as 200.83 pmol in the experiment on PAR [1] (setting [3]) and 116.208 pmol in the experiment with PAR [1] (specific binding (His-Pbm-AIF values subtracted), Scatchard analysis). Further, the Kd on PAR [1] (setting [4]) is 100 nM; on PAR [1] (specific binding (His-Pbm-AIF values subtracted), Scatchard analysis, read-out: calculated Kd) it was 66.3 nM.
